The subject of data set [1] is S. brevitalea DSM 7029 wild type. As to the kind of experiment: Growth curve of DSM 7029 wild type with compounds (Bioscreen C). Type of data set: cell-based, Schlegelella brevitalea DSM 7029. The settings on record: CYMG medium. The procedure, abridged: (§1)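 CYMG medium inoculated 1:100 from overnight culture with compounds at 0.1 μg/μL; OD600 read hourly for 42 h with shaking. Biofilm quantified at 18 h and 36 h by 0.1% crystal violet staining, 95% ethanol elution, OD600. Pigment secretion measured as OD600 of cell-free supernatant.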

Data set [2] has the same test system. Put plainly: Biofilm formation of DSM 7029 wild type with compounds (crystal violet). In kind it is cell-based, Schlegelella brevitalea DSM 7029. The method, boiled down: as §1
Another data set relates to PvdQ-like acylase GdnD. Put plainly: Deacylation by acylase GdnD (cell lysate, LC-MS). The settings on record: 100 μL E. coli cell lysate with GdnD, 5 μL 10 mM substrate, 30 °C; 7 and 8: 4 h, 16 h, 27 h; other substrates 16 h; boiled lysate as control. In kind it is biochemical, Schlegelella brevitalea DSM 7029. How it is done: The hydrolysis function of PvdQ-like acylase GdnD was tested. GdnD is predicted to be a periplasmic protein by PSORTb[13]. The collected pellet from 50 mL LB dissolved with 8 mL buffer C (50 mM Tris, 300 mM NaCl, 5 mM MgCl2, pH 7.6), and lysed by cell disruption. Then, one hundred microliter of the cell lysate was incubated with 5 μL 10 mM substrates 7 and 8 for 4 h, 16 h, and 27 h at 30 °C. The negative control was boiled cell lysate. The other substrates (13, 14, 15, 16, and 17) incubated with the cell lysate dealt for 16 h at 30 °C. Then, the reaction was stopped by the addition of the 100 μL MeOH, and the final mixture was checked by LC‒MS analysis (5%‒95% ACN in 15 min) according to the above condition.

Another data set has as its system tumor lines. As to the kind of experiment: MTT cytotoxicity assay, statements on the whole panel. In kind it is cell-based, human. The settings on record: MTT assay, panel of tumor cell lines. The procedure, abridged: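 An MTT-based assay, run as in prior work, gives compound cytotoxicity here. The tested lines undergo routine authentication through morphology and gene/protein expression checks.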
A general note: Tetrazolium dyes change colour on reduction, which living cells bring about.

Where [3] appears, read: relative to wild type treated with H2O = 100%, crystal violet 0.1%, OD600, mean of n = 3.

“Also recorded” adds a separate entry of the source. Non-standard residues stand in square brackets, D forms with d. Residues, ends and D or L forms follow the SMILES beside them. *: point of attachment. Lauroyl = CCCCCCCCCCCC(=O)*; NH(CH2)4NH2 = NCCCCN*

On to `CCCCCCCCCCCC(=O)N[C@H](CCSC)C(=O)N[C@H](CC(N)=O)C(=O)N1CCC[C@H]1C(=O)N[C@H](C(=O)N[C@H](Cc1ccccc1)C(=O)N1CCC[C@H]1C(=O)N[C@@H](Cc1c[nH]c2ccccc12)C(=O)N[C@@H](C(=O)N[C@@H](C)C(=O)N[C@H](C)C(=O)N[C@@H](CO)C(=O)N[C@@H](C)C(=O)NCCCCN)C(C)C)C(C)C` [Compound 7, Glidonin G] (Lauroyl-[dM][dN]PV[dF]PW[dV]A[dA]SA-{NH(CH2)4NH2}), for which the “effect on growth of DSM 7029 wild type in words” value in data set [1] (compound 0.1 μg/μL, OD600 every hour for 42 h, Bioscreen C) was “weak inhibition of growth; also recorded: obviously inhibit the growth”. For the same compound, the “OD600 of wild type DSM 7029 with addition of compounds” value in data set [1] (control OD600 0.6) worked out at 0.4. Also, the “effect on biofilm formation of DSM 7029 wild type in words” value in data set [2] (crystal violet staining) is given as “increased biofilm formation”. Further, in data set [2] (setting [3]), the “biofilm formation 18 h, Average” value worked out at 152.732% and the “biofilm formation 36 h, Average” value is given as 138.926%. For the same compound, the “deacylation by GdnD, nonacylated product by LC-MS” value in the data set on PvdQ-like acylase GdnD was “nonacylated products 1 and 2 were detected”. Besides, in the data set with tumor lines, the “cytotoxic / antitumor activity in words” value is “broad-spectrum cytotoxicity”.

These data come from publication PMC10587159, “Biosynthesis and engineering of the nonribosomal peptides with a C-terminal putrescine” (Nature Communications, 2023).
